We go through five compounds from article PMC8369502, “High-Throughput Drug Screening System Based on Human Induced Pluripotent Stem Cell-Derived Atrial Myocytes ∼ A Novel Platform to Detect Cardiac Toxicity for Atrial Arrhythmias” (Frontiers in Pharmacology, 2021).

Read-outs that look alike come from different tables or passages of the source.

The subject of data set [1] is AM (RA-treated hiPS-CMs, atrial-like). The data set is described as follows: High-throughput membrane potential recording (FluoVolt, FDSS/μCell) in AM. Type of data set: cell-based, human. The procedure:
(§1) Using a high-throughput screening system (FDSS/μCell), we assessed the drug toxicity of several experimental drugs on hiPS-derived atrial myocytes as well as control hiPS-derived cardiomyocytes. Membrane potential was used as one of the parameters during the assessment.
(§2) After purification, hiPS-derived cardiomyocytes were plated in 96-well plates for downstream drug response assessment using FluoVolt™ Membrane Potential Kit. […] The comparison of variance in the response of drug administration in CT and AM was represented by the percentage of changes based on their baseline values respectively.
(§3) FluoVolt™ Membrane Potential Kit (ThermoFisher […], F10488, Massachusetts, United States) was used to measure membrane potentials. The basic procedure was performed in accordance with the manufacturer’s instructions. […] MP were recorded at excitation and emission stages at wavelengths of 470 and 540 nm, respectively. […] Stock solutions of the test compounds were prepared in 100% DMSO, and serially diluted 1/40 into compound plates for testing (0.5% DMSO was the maximum concentration in all wells). The compounds were automatically pipetted from the compound plate, and 12 μL was loaded in the wells already containing the cells with 48 μL of media. Recording data were analyzed using Waveform Analysis of Cardiomyocyte Software (Ver.1.2.1J, Hamamatsu Photonics K.K.). Data values for a well were averaged from waveforms that arose during 30 s. The beat rate (BR; beats per minute), waveform amplitude (AMP), and duration at 30, 50, and 80% of decay (PWD30, PWD 50, and PWD 80, respectively) were used as evaluation parameters. PWDs were corrected using the Fridericia formula. PWD30-80 was calculated as the difference between PWD80 and PWD30. Each parameter was calculated as percentage change (%) from the value before test compound addition.

Data set [2] relates to CT (control hiPS-CMs without RA, ventricular-like). The data set is described as follows: High-throughput membrane potential recording (FluoVolt, FDSS/μCell) in CT. Type of data set: cell-based, human. The procedure: as §1, §2, §3
[3] abbreviates: % change from value before compound addition, 10 min after addition (Bay K 8644: 3 min).
[4] abbreviates: concentration range as stated in the source.

`CCS(=O)(=O)N(C)[C@H]1c2cc(C#N)ccc2OC(C)(C)[C@@H]1O` (racemic) [Chromanol 293B]: the “membrane potential duration (in words)” value in data set [1] is given as “increase”. In addition, in data set [1] (setting [3]), the PWD30cF result is given as “↑” and the “Rising Slope” value is “↓”. The “rising slope of membrane potential (in words)” value (shortened to “rising slope … (in words)”) in data set [1] (setting [4]) is “dose-dependent decrease”. In data set [2], the “membrane potential duration (in words)” value is recorded as “increase”. For the same compound, in data set [2] (setting [3]), the “Falling Slope” value is “↓”, the PWD30cF result is given as “↑”, the PWD80cF entry was “↑” and the “Rising Slope” value is on record as “↓”. In addition, the “rising slope … (in words)” value in data set [2] (setting [4]) was “dose-dependent decrease”.
For `Nc1ccncc1` [4-Aminopridine, 4-Aminopyridine], in data set [1] (setting [3]), the PWD30cF result is given as “↑” and the PWD80cF entry is listed as “↑”. Besides, in data set [1] (listed as 4-AP), the “PWD30cF (in words)” value is on record as “dose-dependent increases” and the “PWD50cF (in words)” value is listed as “dose-dependent increases”. In data set [1] (listed as 4AP), the “PWD30cF (in words)” value is reported as “prolongation” and the “PWD50cF (in words)” value is “prolongation”. Besides, the PWD30cF entry in data set [2] (setting [3]) is on record as “↑”.
With `COC(=O)C1=C(C)NC(C)=C([N+](=O)[O-])C1c1ccccc1C(F)(F)F` (centres unmarked) [Bay K 8644], the “PWD30cF (in words)” value in data set [1] is on record as “prolonged”; in data set [1] (listed as Bay K8644), “prolonged significantly”; in data set [2] it was “prolonged”; in data set [2] (listed as Bay K8644), “prolonged significantly”. The “membrane potential duration (in words)” value in data set [1] and in data set [2] was “prolonged” each time. Also, the “Falling Slope” value in data set [1] (setting [3]) and in data set [2] (setting [3]) was “↓” throughout. In addition, the PWD30cF entry in data set [1] (setting [3]) and in data set [2] (setting [3]) was “↑” in each case. For the same compound, the PWD80cF entry in data set [1] (setting [3]) and in data set [2] (setting [3]) was “↑” in each case. The “Rising Slope” value in data set [1] (setting [3]) was “↑”. Also, the “falling slope of membrane potential (in words)” value in data set [1] (setting [4]) and in data set [2] (setting [4]) was “dose-dependent decrease” throughout.
As for `C[N+](C)(C)CCOC(N)=O` [Carbachol], in data set [1], the “EAD / irregular beating (in words)” value is reported as “No irregular beating or EAD was elicited”. Besides, in data set [1] (setting [3]), the “Beat Rate” value is on record as “↓” and the “Rising Slope” value is listed as “↓”. Besides, in data set [1] (setting [4]), the “beating rate (in words)” value was “decrease” and the “rising slope … (in words)” value is “decrease”. Further, the “EAD / irregular beating (in words)” value in data set [1] (listed as carbachol) is reported as “caused irregular beats early after application”. For the same compound, in data set [2], the “EAD / irregular beating (in words)” value is “No irregular beating or EAD was elicited” and the “response of membrane potential parameters (in words)” value is “no significant difference was observed”.
`COc1ccc([C@@H]2Sc3ccccc3N(CCN(C)C)C(=O)[C@@H]2OC(C)=O)cc1` [Diltiazem]: the “other parameters of membrane potential (in words)” value in data set [1] is listed as “no obvious changes were observed”. The “cessation of beating (samples)” value in data set [1] (0.1 μM doses) is on record as “all the AM samples”. Besides, the “incidence of arrhythmia-like waveforms: arrest” value in data set [1] (1 μM) is 100%. In data set [1] (setting [3]), the “Beat Rate” value is given as “↑” and the PWD30cF entry was “↓”. The “arrest of spontaneous beating (samples)” value in data set [1] (at the maximal concentration) is given as “all the tested samples”. For the same compound, the “beating rate (in words)” value in data set [1] (setting [4]) was “dose-dependent increase”. For the same compound, the “membrane potential duration (in words)” value in data set [2] was “decreased”. Further, in data set [2] (setting [3]), the “Falling Slope” value is recorded as “↑”, the PWD30cF result is recorded as “↓” and the PWD80cF result is given as “↓”. In data set [2] (setting [4]), the “beating rate (in words)” value is “dose-dependent increases” and the “falling slope of membrane potential (in words)” value is “dose-dependent increases”.
